Assay results from US20050153951A1, “Neurotrophic pyrrolidines and piperidines, and related compositions and methods” (priority 1999, published 2005).
Values joined by “and” are separate entries in the source; they are usually repeats but may differ in a detail not shown here. Equal entries are not always repeated.

What was measured:
[1] = tested on: Dorsal Root Ganglion (DRG); test: Dorsal Root Ganglion (DRG) culture, neurite outgrowth; assay type: cell-based, rat; design: key: +: Positive results for each experiment; −: Negative results for each experiment; conditions: test compound 50-250 nM; neurite outgrowth examined days 1-5; positive if neurites of ≧1 diameter of the DRG; one symbol per experiment
Procedure: DRG are dissected from newborn or 1-day-old CD rats and placed into PBS on ice. After rinsing twice with sterile plating medium, DRG are transferred to empty wells of a 6-well plate coated with polyornithine/laminin (Becton Dickinson Labware) using #7 curved forceps. Three ml/well of plating medium are then added very gently, so as not to disturb the DRG. Plating medium is Leibovitz's L-15 medium (Gibco), plus 0.6% glucose, 33 mM KCl, 10% FCS, 10 mM Hepes and penicillin/streptomycin/glutamine. After overnight incubation at about 37° C. in 5% CO2, this medium is replaced with 3 mL/well of assay medium [Leibovitz's L-15 medium plus 0.6% glucose, 1% FCS, 1% N-2 supplement (Gibco), 10 μM ara-C, 10 mM Hepes, and penicillin/streptomycin/glutamine] containing either vehicle (DMSO, 1/200,000), positive control (24 ng/mL NGF) or test compound (50-250 nM). All media are prepared fresh daily. DRG are microscopically examined for neurite outgrowth on days 1-5.

[2] = tested on: Human M17 Neuroblastoma Cells; test: Neurite outgrowth assay, M17 neuroblastoma cells; assay type: cell-based; conditions: MAP-2 immunofluorescence; active if greater than mean DMSO-treated control on the same plate
Procedure: M17 human neuroblastoma cells are cultured in 1:1 ratio of EMEM and Hams's F12 with 1×NEM and 10% FBS. The culture media contains 1×PSN antibiotic and is exchanged every other day, and the cells are passed in log phase near confluence.
(§1) Cultures are incubated with normal horse serum (1:50; Vector Labs) for about 20 min, rinsed and then incubated with primary antibody, microtubule associated-protein 2 (anti-mouse MAP-2; 1:1000; Chemicon) for about 2 h at about RT. Following primary antibody, cultures are rinsed and incubated with fluorescein anti-mouse IgG (rat absorbed; 1:50; Vector Labs) for about 1 h. After fluorescein incubation, the cultures are rinsed and read in PBS on a fluorescent plate reader (excitation: 485 nm; emission: 530 nm). […] The response to test compound is reported as percent of DMSO-treated control.

[3] = tested on: Primary Rat Hippocampal Cells; test: Neurite outgrowth assay, primary rat hippocampal cells; assay type: cell-based; conditions: MAP-2 immunofluorescence; active if greater than mean DMSO-treated control on the same plate
Procedure: Hippocampal cells are dissected from the brains of embryonic day 18 rat pups and dissociated with trypsin (1 mg/mL) and trituration. Cells are seeded at 30,000 cells/well in 96-well plates filled with 100 μL MEM and 10% FBS. At 7 days in culture, cells are fixed with 4% paraformaldehyde and immuno-fluorescence is performed.
as §1

[4] = tested on: facial nerve; test: Rat facial nerve compression model; assay type: in vivo; conditions: p.o. about 20 mg/kg twice a day for 15 days; compared to vehicle and internal control; FIG. 1
Procedure: In this model, compressing the facial nerve causes paralysis of the whisker muscle on that side of the face. The untreated facial nerve on the other side functions as an internal control. […] The whisker movement recovery rate on the paralyzed side compared to the vehicle and internal control is shown in this FIGURE.
Long-Evans rats are anesthetized under ketamine (60 mg/kg)/xylazine (6 mg/kg). The facial nerve is exposed and mechanically compressed with forceps near the stylomastoid foramen unilaterally with the opposite, non-lesioned side serving as an internal control. […] Rats received test compound p.o. at about 20 mg/kg twice a day for 15 days after the surgery. Control rats received vehicle only. Three to eight rats are tested in each group. Restoration of whisker movement after the treatment with compounds of the present invention is recorded at different post-operative time points daily, up to two weeks, and is shown in FIG. 1.

[5] = tested on: PC12 cells and sensory ganglia; conditions: cultures of PC12 cells and sensory ganglia; Lyons et al. 1994; cited from earlier work

| Structure (SMILES) | M17 Cell Response [2] | Rat Hippocampal Cell Response [3] | also measured |
| --- | --- | --- | --- |
| O=C(NCc1cccnc1)c1ncoc1[C@@H]1CCCN1C(=O)OCc1ccccc1 [Compound 1] | 103% of DMSO-treated control |  | DRG [1]: − |
| O=C(NCc1cccnc1)c1ncoc1[C@@H]1CCCN1S(=O)(=O)Cc1ccccc1 [Compound 3] |  |  | DRG [1]: − |
| O=C(OCc1cccnc1)c1ncoc1[C@@H]1CCCN1C(=O)OCc1ccccc1 [Compound 4] | 134% of DMSO-treated control and 111% of DMSO-treated control | 111% of DMSO-treated control and 123% of DMSO-treated control | DRG [1]: + |
| O=C(NCc1cccnc1)c1csc([C@@H]2CCCN2C(=O)OCc2ccccc2)n1 [Compound 11] |  |  | DRG [1]: + |
| O=C(NCc1cccnc1)c1csc([C@@H]2CCCN2S(=O)(=O)Cc2ccccc2)n1 [Compound 13] | 102% of DMSO-treated control |  | DRG [1]: − |
| CCC(C)(C)C(=O)C(=O)N1CCC[C@H]1c1nc(C(=O)NCc2cccnc2)cs1 [Compound 14] | 112% of DMSO-treated control and 108% of DMSO-treated control | 116% of DMSO-treated control |  |
| CCC(C)(C)C(=O)C(=O)N1CCC[C@H]1c1nc(COc2cccnc2)cs1 [Compound 19] | 110% of DMSO-treated control | 109% of DMSO-treated control |  |
| CCC(C)(C)C(=O)C(=O)N1CCC[C@H]1C(=O)NNC(=O)[C@@H]1CCCN1C(=O)C(=O)C(C)(C)CC [Compound 24] | 123% of DMSO-treated control | 119% of DMSO-treated control and 104% of DMSO-treated control and 108% of DMSO-treated control | DRG [1]: + and − |
| CCC(C)(C)C(=O)C(=O)N1CCCC[C@H]1C(=O)NNC(=O)[C@@H]1CCCCN1C(=O)C(=O)C(C)(C)CC [Compound 25] | 111% of DMSO-treated control | 108% of DMSO-treated control |  |
| CCC(C)(C)C(=O)C(=O)N1CC[C@H]1C(=O)NNC(=O)[C@@H]1CCN1C(=O)C(=O)C(C)(C)CC [Compound 26] |  | 133% of DMSO-treated control |  |
| CCC(C)(C)C(=O)C(=O)N1CCCC1c1nnc([C@@H]2CCCN2C(=O)C(=O)C(C)(C)CC)o1 (some centres unmarked) [Compound 30] | 112% of DMSO-treated control and 103% of DMSO-treated control | 161% of DMSO-treated control and 118% of DMSO-treated control and 130% of DMSO-treated control | DRG [1]: +, +, +, +, +; Restoration of whisker movement on the paralyzed side [4]: restored more rapidly |
| CCC(C)(C)C(=O)C(=O)N1CCC[C@H]1c1nc(CCc2cccnc2)no1 [Compound 31] | 111% of DMSO-treated control | 124% of DMSO-treated control | DRG [1]: + and − |
| CCC(C)(C)C(=O)C(=O)N1CCC[C@H]1C(=O)NNC(=O)CCc1cccnc1 [Compound 32] | 103% of DMSO-treated control |  |  |
| CCC(C)(C)C(=O)C(=O)N1CCC[C@H]1c1nnc(CCc2cccnc2)o1 [Compound 33] | 104% of DMSO-treated control | 112% of DMSO-treated control |  |
| CCC(C)(C)C(=O)C(=O)N1CCC[C@H]1C(=O)NNC(=O)CCc1cc(OC)c(OC)c(OC)c1 [Compound 34] | 106% of DMSO-treated control | 113% of DMSO-treated control |  |
| CCC(C)(C)C(=O)C(=O)N1CCC[C@H]1c1nnc(CCc2cc(OC)c(OC)c(OC)c2)o1 [Compound 35] | 106% of DMSO-treated control | 126% of DMSO-treated control |  |
| CCC(C)(C)C(=O)C(=O)N1CCCC[C@H]1C(=O)NNC(=O)CCc1cc(OC)c(OC)c(OC)c1 [Compound 37] | 111% of DMSO-treated control | 130% of DMSO-treated control |  |

| Structure (SMILES) | M17 Cell Response [2] | Rat Hippocampal Cell Response [3] | also measured |
| --- | --- | --- | --- |
| CCC(C)(C)C(=O)C(=O)N1CCCC[C@H]1c1nnc(CCc2cccnc2)o1 [Compound 38] | 105% of DMSO-treated control | 129% of DMSO-treated control |  |
| CCC(C)(C)C(=O)C(=O)N1CCCC[C@H]1c1nnc(CCc2cc(OC)c(OC)c(OC)c2)o1 [Compound 39] | 112% of DMSO-treated control |  |  |
| CCC(C)(C)C(=O)C(=O)N1CCCCC1c1nnc([C@@H]2CCCCN2C(=O)C(=O)C(C)(C)CC)o1 (some centres unmarked) [Compound 44] | 118% of DMSO-treated control |  |  |
| O=C(C(=O)N1CCCC1c1nnc([C@@H]2CCCN2C(=O)C(=O)c2cccs2)o1)c1cccs1 (some centres unmarked) [Compound 48] |  | 113% of DMSO-treated control |  |
| CCC(C)(C)C(=O)C(=O)N1CCC[C@H]1C(=O)NNC(=O)[C@@H]1CCCN1C(=O)OCc1ccccc1 [Compound 50] |  | 110% of DMSO-treated control |  |
| COC(=O)C(=O)N1CCCC1c1nnc([C@@H]2CCCN2C(=O)C(=O)OC)o1 (some centres unmarked) [Compound 51] |  | 107% of DMSO-treated control |  |
| CCC(C)(C)C(=O)C(=O)N1CCC1c1nnc([C@@H]2CCN2C(=O)C(=O)C(C)(C)CC)o1 (some centres unmarked) [Compound 52] |  | 110% of DMSO-treated control |  |
| O=S(=O)(Cc1ccccc1)N1CCCC1c1nnc([C@@H]2CCCN2S(=O)(=O)Cc2ccccc2)o1 (some centres unmarked) [Compound 54] |  | 113% of DMSO-treated control |  |
| CCC(C)(C)C(=O)C(=O)N1CCC[C@H]1c1nnc(C2CCCN2)o1 (some centres unmarked) [Compound 55] |  | 116% of DMSO-treated control |  |
| COc1cc(C(=O)C(=O)N2CCCC2c2nnc([C@@H]3CCCN3C(=O)C(=O)c3cc(OC)c(OC)c(OC)c3)o2)cc(OC)c1OC (some centres unmarked) [Compound 56] |  | 118% of DMSO-treated control and 116% of DMSO-treated control |  |
| CCC(C)(C)C(=O)C(=O)N1CSCC1c1nnc([C@@H]2CSCN2C(=O)C(=O)C(C)(C)CC)o1 (some centres unmarked) [Compound 58] |  | 142% of DMSO-treated control |  |
| CCC(C)(C)C(=O)C(=O)N1CCC[C@H]1C(=O)NNC(=O)c1cccnc1 [Compound 59] |  | 116% of DMSO-treated control |  |
| CCC(C)(C)C(=O)C(=O)N1CCC[C@H]1c1nnc(-c2cccnc2)o1 [Compound 60] |  | 114% of DMSO-treated control |  |
| CC(C)(C)C(=O)C(=O)N1CCCC1c1nnc([C@@H]2CCCN2C(=O)C(=O)C(C)(C)C)o1 (some centres unmarked) [Compound 62] |  | 120% of DMSO-treated control |  |
| CCC(C)(C)C(=O)C(=O)N1CCCC1C(=O)NNC(=O)[C@H]1CCCN1C(=O)C(=O)C(C)(C)CC (some centres unmarked) [Compound 63] |  | 110% of DMSO-treated control |  |
| CCC(C)(C)C(=O)C(=O)N1CCC[C@@H]1c1nnc([C@H]2CCCN2C(=O)C(=O)C(C)(C)CC)o1 [Compound 64] |  | 122% of DMSO-treated control |  |
| C=CC[C@@H]1/C=C(\C)C[C@H](C)C[C@H](OC)[C@H]2O[C@@](O)(C(=O)C(=O)N3CCCC[C@H]3C(=O)O[C@H](/C(C)=C/[C@@H]3CC[C@@H](O)[C@H](OC)C3)[C@H](C)[C@@H](O)CC1=O)[C@H](C)C[C@@H]2OC [FK506] |  |  | neurotrophic activity [5]: shows neurotrophic activity |
